Where two headings read alike, the source gives them in different places.
What was measured:
Type in all cases: in vivo
Botrytis cinerea [1] = experiment: Control of Botrytis cinerea disease in tobacco (Bc-Nt); details: 1 μM spraying every 24 hours for one week, water control 6.7
Summary of the method: (§1)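 Post-inoculation foliar spray, 1 μM, q24h × 1 wk; n = 50 plants/treatment; water control. Endpoints: mortality rate (Nocardia), % symptomatic leaves (Alternaria), lesion diameter (Botrytis).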

Rhizoctonia solani [2] = experiment: Control of Rhizoctonia solani disease in tomato (Rs-SI); details: 1 μM spraying every 24 hours for one week, water control 96
[3] = test system: Candidatus 'Liberibacter asiaticus'; details: 1 μM spray, during 6 months, diseased citrus plants
Radopholus similis = experiment: Nematode control, nodules per plant: Radopholus similis; details: 1 μM foliar application every 5 days, evaluation 35 days after, control 45
Summary of the method: (§2)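 Compounds in ethanol, diluted in water to 1 μM, sprayed on leaves only every 5 days. Ten plants per treatment; nodules per plant counted at 35 days.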

Phytophthora parasitica = experiment: Control of Phytophthora parasitica disease in tobacco (Pp-Nt); details: 1 μM spraying every 24 hours for one week, water control 91
Botrytis cinerea [4] = experiment: Control of Botrytis cinerea disease in tomato (Bc-SI); details: 1 μM spraying every 24 hours for one week, water control 7.4
Summary of the method: as §1

Botrytis cinerea [5] = experiment: Control of Botrytis cinerea disease in Arabidopsis (Bc-At); details: 1 μM spraying every 24 hours for one week, water control 8.7
Summary of the method: as §1

[6] = test system: Candidatus 'Liberibacter asiaticus'; details: spraying every 15 days, 12 months after treatment, Citrus sinensis with HLB
Rhizoctonia solani [7] = experiment: Control of Rhizoctonia solani disease in tobacco (Rs-Nt); details: 1 μM spraying every 24 hours for one week, water control 87
Pratylenchus coffeae = experiment: Nematode control, nodules per plant: Pratylenchus coffeae; details: 1 μM foliar application every 5 days, evaluation 35 days after, control 42
Summary of the method: as §2

Meloidogyne incognita = experiment: Nematode control, nodules per plant: Meloidogyne incognita; details: 1 μM foliar application every 5 days, evaluation 35 days after, control 34
Summary of the method: as §2

Nocardia sp = experiment: Control of Nocardia sp disease in tobacco (N-Nt); details: 1 μM spraying every 24 hours for one week, water control 58
Summary of the method: as §1

Alternaria solani = experiment: Control of Alternaria solani disease in tomato (As-SI); details: 1 μM spraying every 24 hours for one week, water control 68
Summary of the method: as §1

SMILES	Bc-Nt: mean of the diameter of the lesion (Botrytis cinerea [1]) [mm]	Rs-SI: percentage of mortality (Rhizoctonia solani [2]) [%]	Levels of the bacterium, application once a month compared to twice a month [3]	Bacterial reduction ([3]; once and twice a month)	Rs: number of nodules per plant (Radopholus similis)	Pp-Nt: percentage of mortality (Phytophthora parasitica) [%]	Bc-SI: mean of the diameter of the lesion (Botrytis cinerea [4]) [mm]	Bc-At: mean of the diameter of the lesion (Botrytis cinerea [5]) [mm]	Titers of the bacterium ([6]; 0.001 μM) [copies per reaction]	Titers of the bacterium ([6]; 0.01 μM) [copies per reaction]	Titers of the bacterium ([6]; 1 μM) [copies per reaction]	Titers of the bacterium ([6]; 5 μM) [copies per reaction]	Titers of the bacterium ([6]; 10 μM) [copies per reaction]	Rs-Nt: percentage of mortality (Rhizoctonia solani [7]) [%]	Pc: number of nodules per plant (Pratylenchus coffeae)	Mi: number of nodules per plant (Meloidogyne incognita)	N-Nt: percentage of mortality (Nocardia sp) [%]	As-SI: percentage of leaves with the disease symptoms (Alternaria solani) [%]
O=C(CCc1cc2cc3c(-c4ccccc4)coc3cc2oc1=O)NCC(O)CO (centres unmarked) [IB, N-(2,3-dihydroxypropyl)-3-{2-oxo-6-phenyl-2H-furo[3,2-g]chromen-3-yl}propanamide]	2.0	2	reduced significantly	bacterial reduction was observed in both tested variants	24	2	1.6	1.1	598	15	0	98	9751	3	13	3	1	2
O=C(c1cnc(N2CCN(n3cccc3)CC2)nc1)N1CC2CC(O)C(O)CC2C1 (centres unmarked) [IIIK, 2-({2-[4-(1H-pyrrol-1-yl)piperazin-1-yl]pyrimidin-5-yl}carbonyl)-octahydro-1H-isoindole-5,6-diol]	0.9	2			0	0	0.8	0.5	635	0	3	65	8420	0	14	0	1	8
O=C(c1ccc(OC2CCN(CC(O)CO)CC2)cc1)N1CCC(C2CCCCC2)C1 (centres unmarked) [IVE]	0.9	2			14	1	0.8	0.5	985	0	0	98	9845	4	2	4	2	3
O=C(Cc1cc2c(oc1=O)C=CC1C(C3CCCC3)=COC21)NCC(O)CO (centres unmarked) [IID, 2-{5-cyclopentyl-11-oxo-3,10-dioxatricyclo[7.4.0.0^{2,6}]trideca-1(9),4,7,12-tetraen-12-yl}-N-(2,3-dihydroxypropyl)acetamide]	0.9	2			0	0	1.2	0.7	587	12	2	87	1351	0	17	0	1	8
CN1c2cc(C(=O)NC3CCCC3)ccc2OCC1CC(=O)NC(CO)CO (centres unmarked) [VH, N-cyclopentyl-3-{[(1,3-dihydroxypropan-2-yl)carbamoyl]methyl}-4-methyl-3,4-dihydro-2H-1,4-benzoxazine-6-carboxamide]	0.9	2			2	2	1.2	0.7	658	4	0	68	6541	3	1	3	1	2
O=C(c1ccc(OC2CCN(CC(O)CO)CC2)cc1)N1CCC(C2CCCC2)C1 (centres unmarked) [IVG, 3-(4-{4-[(3-cyclopentylpyrrolidin-1-yl)carbonyl]phenoxy}piperidin-1-yl)propane-1,2-diol]	1.5	0			0	0	0.8	2.4	658	0	0	68	4562	0	0	0	0	7

— patent US11013235B2 (priority 2015, dated 2021)
